The NIST ThermoML archive (doi:10.1021/je0340755)

Assay: xn = mol fraction of the nth substance listed
Details: 101.3 kPa, Liquid; for viscosity: Capillary tube (Ostwald / Ubbelohde) method

CC(O)CCO (configuration not stated) [1,3-butanediol] + O
Details	mass density, 298.15 K [kg/m3]	speed of sound, 298.15 K [m/s]	viscosity, 298.15 K [mPa·s]	viscosity, 308.15 K [mPa·s]
x2 = 0.045	1001	1544.1	92.65	49.94
x2 = 0.1445	1003.36	1569.1	81.12	43.43
x2 = 0.2499	1006.05	1594.2	67.64	36.09
x2 = 0.3526	1008.62	1613.2	54.19	29.07
x2 = 0.4519	1011.07	1631.1	41.72	22.69
x2 = 0.5035	1012.39	1643.5	35.66	19.58
x2 = 0.5563	1013.79	1652.1	29.86	16.57
x2 = 0.6507	1016.24	1682	20.66	11.66
x2 = 0.7518	1017.77	1702	12.64	7.207
x2 = 0.8477	1015.59	1681.6	6.82	3.905
x2 = 0.9081	1010.74	1673.4	4.008	2.337
x2 = 0.9152	1009.95	1660.2	3.719	2.179
x2 = 0.9253	1008.73	1645	3.322	1.965
x2 = 0.9355	1007.4	1615.2	2.937	1.759
x2 = 0.9521	1005.03	1610.8	2.348	1.45
x2 = 0.9543	1004.7	1599.6	2.273	1.411
x2 = 0.9597	1003.86	1576.9	2.093	–
x2 = 0.9699	1002.22	1551.3	1.765	–
x2 = 0.9804	1000.46	1525.7	1.444	–
x2 = 0.9901	998.79	1519.4	1.163	–
x2 = 0.9924	998.38	1510.8	1.098	–
x2 = 0.9955	997.84	1527.6	1.012	–
